Laboratory results as given in patent US7368470B2, “Substituted 3-pyrrolidine-indole derivatives” (Gruenenthal GmbH, priority 2003, dated 2008).

Key:
[1] = tested on: binding site 2 of the sodium channel (batrachotoxin (BTX) binding site); test: Binding test on the sodium channel, binding site 2 (BTX bond), [3H]-batrachotoxinin A20 α-benzoate as ligand; design: species or system rat; details: for BTX bond, % inhibition [10 μM]: rat cerebrocortex synaptosomes, ligand 10 nM, 25° C., 120 min
[2] = biological target: T1, serotonin reuptake (5HT uptake) (Rattus norvegicus, UniProt P31652); test: Serotonin reuptake inhibition (5HT uptake inhibition) in rat brain synaptosomes; assay type: biochemical; details: synaptosomes from male rats' brains
T1 construct: These vesicular particles were isolated from the hypothalamus of male rats' brains for 5HT uptake; from tissue; host or cells: rat brain synaptosomes (P2 fraction; cerebral cortex / hypothalamus of male rats)
From the text: a) Tests on Serotonin Reuptake Inhibition
In order to be able to carry out these in vitro studies, synaptosomes from rats' cerebral cortices were freshly isolated. A “P2” fraction prepared according to Gray and Whittaker's instructions (E. G. Gray and V. P. Whittaker (1962) J. Anat. 76, 79-88) was used in each case. These vesicular particles were isolated from the hypothalamus of male rats' brains for 5HT uptake.
A detailed description of the method may be found in the literature (M. Ch. Frink, H.-H. Hennies, W. Englberger, M. Haurand and B. Wilffert (1996) Arzneim.-Forsch./Drug Res. 46 (III), 11, 1029-1036).

T1 sequence (P31652 whole entry): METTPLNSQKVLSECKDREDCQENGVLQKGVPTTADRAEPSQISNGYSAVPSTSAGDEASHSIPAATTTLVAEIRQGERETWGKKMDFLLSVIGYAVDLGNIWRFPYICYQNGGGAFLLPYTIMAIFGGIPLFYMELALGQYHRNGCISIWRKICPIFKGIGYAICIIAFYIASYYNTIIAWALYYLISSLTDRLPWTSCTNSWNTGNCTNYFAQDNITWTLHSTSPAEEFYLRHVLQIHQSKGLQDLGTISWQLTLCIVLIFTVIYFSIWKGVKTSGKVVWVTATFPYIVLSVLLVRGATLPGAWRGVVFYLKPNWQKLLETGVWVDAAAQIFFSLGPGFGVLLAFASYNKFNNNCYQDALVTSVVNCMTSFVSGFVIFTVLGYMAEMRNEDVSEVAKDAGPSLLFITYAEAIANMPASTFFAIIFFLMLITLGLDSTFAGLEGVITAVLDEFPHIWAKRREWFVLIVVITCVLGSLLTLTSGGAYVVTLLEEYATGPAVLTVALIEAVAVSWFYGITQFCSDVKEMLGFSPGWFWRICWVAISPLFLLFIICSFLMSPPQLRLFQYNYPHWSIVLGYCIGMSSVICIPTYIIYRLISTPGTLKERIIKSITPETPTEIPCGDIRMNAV

Molecule	BTX bond, % inhibition [10 μM] [1]	inhibition at 10 µM [2]	other results
CCn1cc(C2CCN(C(=O)c3ccc(Cl)c(Cl)c3)C2)c2ccccc21 (stereo not shown) [Compound 15, (3,4-dichloro-phenyl)-[3-(1-ethyl-1H-indol-3-yl)-pyrrolidin-1-yl]-methanone]	80%	–	–
CC(C)CCn1cc(C2CCN(C(=O)c3ccc(C(C)(C)C)cc3)C2)c2ccccc21 (stereo not shown) [Compound 6, (4-tert-butyl-phenyl)-{3-[1-(3-methyl-butyl)-1H-indol-3-yl]-pyrrolidin-1-yl}-methanone]	91%	–	–
Cn1cc(C2CCN(C(=O)c3c(F)c(F)c(F)c(F)c3F)C2)c2ccccc21 (stereo not shown) [Compound 47, [3-(1-methyl-1H-indol-3-yl)-pyrrolidin-1-yl]-pentafluorophenyl-methanone]	–	46%	–
O=C(C1CCC1)N1CCC(c2c[nH]c3ccccc23)C1 (stereo not shown) [Compound 22, cyclobutyl-[3-(1H-indol-3-yl)-pyrrolidin-1-yl]-methanone]	–	58%	–
Cc1cc(C)c(S(=O)(=O)N2CCC(c3cn(CC(=O)N(C)C)c4ccccc34)C2)c(C)c1 (stereo not shown) [Compound 14, N,N-dimethyl-2-{3-[1-(2,4,6-trimethyl-benzenesulphonyl)-pyrrolidin-3-yl]-indol-1-yl}-acetamide]	80%	–	–
CN(C)C(=O)Cn1cc(C2CCN(C(=O)NCc3ccc(Cl)c(Cl)c3)C2)c2ccccc21 (stereo not shown) [Compound 17, 3-(1-dimethylcarbamoylmethyl-1H-indol-3-yl)-pyrrolidine-1-carboxylic acid 3,4-dichloro-benzylamide]	–	43%	–
CN(C)C(=O)Cn1cc(C2CCN(S(=O)(=O)Cc3ccccc3)C2)c2ccccc21 (stereo not shown) [Compound 30, N,N-dimethyl-2-[3-(1-phenylmethanesulphonyl-pyrrolidin-3-yl)-indol-1-yl]-acetamide]	–	47%	–
COc1cccc(Cn2cc(C3CCN(C(=O)C=Cc4ccccc4)C3)c3ccccc32)c1 (stereo not shown) [Compound 4, 1-{3-[1-(3-methoxy-benzyl)-1H-indol-3-yl]-pyrrolidin-1-yl}-3-phenyl-propenone]	92%	–	–
O=C(c1cccc(F)c1F)N1CCC(c2cn(Cc3ccc(C(F)(F)F)cc3)c3ccccc23)C1 (stereo not shown) [Compound 5, (2,3-difluoro-phenyl)-{3-[1-(4-trifluoromethyl-benzyl)-1H-indol-3-yl]-pyrrolidin-1-yl}-methanone]	92%	–	–
CC(Oc1ccccc1)C(=O)N1CCC(c2cn(Cc3ccc(C#N)cc3)c3ccccc23)C1 (stereo not shown) [Compound 13, 4-(3-[1-(2-phenoxy-propionyl)-pyrrolidin-3-yl]-indol-1-ylmethyl}-benzonitrile]	82%	–	–
O=C(c1ccccc1Cl)N1CCC(c2c[nH]c3ccccc23)C1 (stereo not shown) [Compound 27, (2-chloro-phenyl)-[3-(1H-indol-3-yl)-pyrrolidin-1-yl]-methanone]	–	70%	–
CCn1cc(C2CCN(C(=O)COc3cccc(Cl)c3)C2)c2ccccc21 (stereo not shown) [Compound 12, 2-(3-chloro-phenoxy)-1-[3-(1-ethyl-1H-indol-3-yl)-pyrrolidin-1-yl]-ethanone]	83%	–	–
CCCCn1cc(C2CCN(C(=O)c3ccc(C(F)(F)F)nc3C)C2)c2ccccc21 (stereo not shown) [Compound 3]	93%	–	–
COc1cccc(Cn2cc(C3CCN(C(=O)C(C)Oc4ccccc4)C3)c3ccccc32)c1 (stereo not shown) [Compound 11, 1-{3-[1-(3-methoxy-benzyl)-1H-indol-3-yl]-pyrrolidin-1-yl}-2-phenoxy-propan-1-one]	83%	–	–
[^3H]-batrachotoxinin A20 α-benzoate [reference compound]	–	–	Kd ([1]; radioligand, mean±SEM, N=3 independent test series, read-out: KD value for this binding site): 24.6 ± 1.56 nM
COc1ccc(C(=O)N2CCC(c3cn(CCC(C)C)c4ccccc34)C2)cc1OC (stereo not shown) [Compound 2, (3,4-dimethoxy-phenyl)-{3-[1-(3-methyl-butyl)-1H-indol-3-yl]-pyrrolidin-1-yl}-methanone]	93%	–	–
COc1ccc(OC)c(CC(=O)N2CCC(c3cn(CC(=O)N(C)C)c4ccccc34)C2)c1 (stereo not shown) [Compound 19, 2-(3-{1-[2-(2,5-dimethoxy-phenyl)-acetyl]-pyrrolidin-3-yl}-indol-1-yl)-N,N-dimethyl-acetamide]	–	86%	–
O=C(CN1CCC(c2cn(Cc3ccc(F)c(F)c3)c3ccccc23)C1)Nc1csc(C(F)(F)F)c1-c1ccccc1 (stereo not shown) [Compound 53, 2-{3-[1-(3,4-difluoro-benzyl)-1H-indol-3-yl]-pyrrolidin-1-yl}-N-(4-phenyl-5-trifluiommethyl-thiophen-3-yl)-acetamide]	–	–	5HT uptake, % inhibition [10 μM] [2]: 55%
CCn1cc(C2CCN(C(=O)c3ccc(C(F)(F)F)c(F)c3)C2)c2ccccc21 (stereo not shown) [Compound 9]	84%	–	–
CCCc1ccc(C(=O)N2CCC(c3cn(Cc4ccc(C(F)(F)F)cc4)c4ccccc34)C2)cc1 (stereo not shown) [Compound 1, (4-propyl-phenyl)-{3-[1-(4-trifluoromethyl-benzyl)-1H-indol-3-yl]-pyrrolidin-1-yl}-methanone]	95%	–	–
CCN(CC)C(=O)Cn1cc(C2CCN(C(=O)C3CCCC3)C2)c2ccccc21 (stereo not shown) [Compound 25, 2-1[3-(1-cyclopentanecarbonyl-pyrrolidin-3-yl)-indol-1-yl]-N,N-diethyl acetamide]	–	–	5HT uptake, % inhibition [10 μM] [2]: 80%
CCCCC(=O)N1CCC(c2cn(CC(=O)N(CC)CC)c3ccccc23)C1 (stereo not shown) [Compound 23, N,N-diethyl-2-[3-(1-pentanoyl-pyrrolidin-3-yl)-indol-1-yl]-acetamide]	–	49%	–
Cc1ccc(S(=O)(=O)NC(Cc2ccccc2)C(=O)N2CCC(c3cn(CC(=O)N(C)C)c4ccccc34)C2)cc1 (stereo not shown) [Compound 29, N,N-dimethyl-2-(3-{1-[3-phenyl-2-(toluene-4-sulphonylamino)-propionyl]-pyrrolidin-3-yl)-indol-1-yl)-acetamide]	–	63%	–
CCn1cc(C2CCN(C(=O)c3cccc(C)c3C)C2)c2ccccc21 (stereo not shown) [Compound 10, (2,3-dimethyl-phenyl)-[3-(1-ethyl-1H-indol-3-yl)-pyrrolidin-1-yl]-methanone]	83%	–	–
CCCc1ccc(C(=O)N2CCC(c3cn(Cc4ccc(Br)cc4)c4ccccc34)C2)cc1 (stereo not shown) [Compound 7, {3-[1-(4-bromo-benzyl)-1H-indol-3-yl]-pyrrolidin-1-yl}-(4-propyl-phenyl)-methanone]	89%	–	–
CCOc1ccccc1C(=O)N1CCC(c2cn(Cc3cccc(OC)c3)c3ccccc23)C1 (stereo not shown) [Compound 8, (2-ethoxy-phenyl)-{3-[1-(3-methoxy-benzyl)-1H-indol-3-yl]-pyrrolidin-1-yl}-methanone]	88%	–	–
Cc1cc(C)cc(Cn2cc(C3CCN(CC(=O)Nc4scc(C)c4C#N)C3)c3ccccc32)c1 (stereo not shown) [Compound 50, N-(3-cyano-4-methyl-thiophen-2-yl)-2-{3-[1-(3,5-dimethyl-benzyl)-1H-indol-3-yl]-pyrrolidin-1-yl}acetamide]	–	83%	–
CN(C)C(=O)Cn1cc(C2CCN(C(=O)c3ccccn3)C2)c2ccccc21 (stereo not shown) [Compound 21, N,N-dimethyl-2-{3-[1-(pyridin-2-carbonyl)-pyrrolidin-3-yl]-indol-1-yl}-acetamide]	–	84%	–
